Experimental data published in ChEMBL document CHEMBL4402604, “Discovery and Structure-Activity Relationship Study of (Z)-5-Methylenethiazolidin-4-one Derivatives as Potent and Selective Pan-phosphatidylinositol 5-Phosphate 4-Kinase Inhibitors” (J Med Chem, 2020).
Active and inactive are the calls of the source. The calls are words filed in the database; no cut-off is given here.

Tests used:
[1] = Lipophilicity, logD of the compound; type: physicochemical; conditions: octanol/water
[2] = Stability in rat liver microsomes at 1 uM in presence of NADPH regeneration system incubated for 15 mins by LC-MS analysis; type: ADME, Microsome
[3] = Permeability of the compound by PAMPA method; type: ADME
[4] = target: Activin receptor type-2A (Homo sapiens) (UniProt P27037); experiment: Inhibition of human ACVR2A expressed in baculovirus expression system
Sequence of Activin receptor type-2A (Homo sapiens) (P27037 whole entry): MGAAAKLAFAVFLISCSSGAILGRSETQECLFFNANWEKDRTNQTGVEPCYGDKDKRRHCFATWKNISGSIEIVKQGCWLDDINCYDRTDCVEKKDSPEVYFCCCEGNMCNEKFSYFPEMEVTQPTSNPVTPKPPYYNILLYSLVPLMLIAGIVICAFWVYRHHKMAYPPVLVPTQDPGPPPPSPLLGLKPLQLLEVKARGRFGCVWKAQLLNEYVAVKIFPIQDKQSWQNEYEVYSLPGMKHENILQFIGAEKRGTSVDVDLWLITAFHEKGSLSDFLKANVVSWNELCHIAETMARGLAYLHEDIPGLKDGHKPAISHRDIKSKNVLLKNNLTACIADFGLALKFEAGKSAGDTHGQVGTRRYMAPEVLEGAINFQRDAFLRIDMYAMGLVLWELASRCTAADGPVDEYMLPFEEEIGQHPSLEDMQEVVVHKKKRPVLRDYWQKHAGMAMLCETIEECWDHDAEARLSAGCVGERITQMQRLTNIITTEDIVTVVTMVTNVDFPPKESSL

Row | SMILES | logD [1] | other results
1 | CNC(=O)Nc1ccc(-c2cncc(/C=C3\SC(=N)NC3=O)c2)cc1 | 1.4 | 
2 | CS(=O)(=O)Nc1ccc(-c2cncc(/C=C3\CC(=O)NC3=O)c2)cc1 | -0.14 | 
3 | CC(=O)Nc1cccc(-c2cncc(/C=C3\SC(=N)NC3=O)c2)c1 | 1.5 | 
4 | CN(C)c1ccc(-c2cncc(/C=C3\SC(=N)NC3=O)c2)cc1 | 2.4 | 
5 | CS(=O)(=O)Nc1ccc(-c2cncc(-c3ccc4cc[nH]c4c3)c2)cc1 | 2.5 | 
6 | CS(=O)(=O)Nc1ccc(-c2cc(/C=C3\SC(=N)NC3=O)cnc2N)cc1 | 0.41 | Stability [2]: Stable; permeability [3]: Impermeable
7 | CS(=O)(=O)Nc1ccc(-c2cnc(N)c(/C=C3\SC(=N)NC3=O)c2)cc1 | 0.41 | 
8 | CS(=O)(=O)Nc1ccc(-c2cncc(-c3ccc4[nH]ccc4c3)c2)cc1 | 2.5 | 
9 | CS(=O)(=O)Nc1ccc(-c2cncc(/C=C3\OC(=O)NC3=O)c2)cc1 | -1 | 
10 | CS(=O)(=O)Nc1ccc(-c2cncc(-c3cccc4c3CC(=O)N4)c2)cc1 | 1.5 | 
11 | CC(=O)Nc1cccc(Nc2cncc(-c3ccc(NS(C)(=O)=O)cc3)c2)c1 | 1.5 | 
12 | CS(=O)(=O)c1ccc(-c2cncc(/C=C3\SC(=N)NC3=O)c2)cc1 | 1.1 | 
13 | CC(=O)Nc1ccc(-c2cncc(/C=C3\SC(=N)NC3=O)c2)cc1 | 1.5 | 
14 | CNS(=O)(=O)c1ccc(-c2cncc(/C=C3\SC(=N)NC3=O)c2)cc1 | 1.1 | 
15 | CNC(=O)Nc1ccc(-c2cncc(-c3ccc(NS(C)(=O)=O)cc3)c2)cc1 | 1.6 | 
16 | COc1ccc(-c2cncc(/C=C3\SC(=N)NC3=O)c2)c2ccccc12 | 3.1 | 
17 | N=C1NC(=O)/C(=C/c2cncc(-c3ccc(OC(F)(F)F)cc3)c2)S1 | 3.7 | 
18 | CC(=O)Nc1cccc(Oc2cncc(-c3ccc(NS(C)(=O)=O)cc3)c2)c1 | 1.5 | 
19 | CC(=O)Nc1cccc(-c2cncc(-c3ccc(NS(C)(=O)=O)cc3)c2)c1 | 1.7 | 
20 | CS(=O)(=O)Nc1ccc(-c2cncc(-c3cccc4[nH]ccc34)c2)cc1 | 2.5 | Stability [2]: Stable; inhibition [4]: Active; permeability [3]: Permeable
21 | CS(=O)(=O)Nc1ccc(-c2cncc(/C=C3\SC(=N)NC3=O)c2)cc1 | 0.66 | Stability [2]: Stable; permeability [3]: Impermeable
22 | CS(=O)(=O)Nc1ccc(-c2cncc(/C=C3\SC(=O)NC3=O)c2)cc1 | -0.05 | Stability [2]: Stable
